This is an account of results in paper PMC7587597, “Synthesis and Biological Evaluation of 1,3-Dideazapurine-Like 7-Amino-5-Hydroxymethyl-Benzimidazole Ribonucleoside Analogues as Aminoacyl-tRNA Synthetase Inhibitors” (Molecules, 2020).

Test [1] has as its target T1, TyrRS (Escherichia coli, UniProt P0AGJ9).
T1 construct: gene tyrS
Kind of test: ([…] Å); radiolabel aminoacylation inhibition (Kiapp). The test is classed as biochemical.

Test [2] concerns the target T2, SerRS (Escherichia coli, UniProt P0A8L1).
T2 construct: gene serS
The test is described as follows: radiolabel aminoacyl transfer assay, % inhibition at […]. The test is classed as biochemical.

The target in test [3] is T3, SerRS (Klebsiella pneumoniae, UniProt W9BNU9).
T3 construct: gene serS
T3 sequence (W9BNU9 1-430): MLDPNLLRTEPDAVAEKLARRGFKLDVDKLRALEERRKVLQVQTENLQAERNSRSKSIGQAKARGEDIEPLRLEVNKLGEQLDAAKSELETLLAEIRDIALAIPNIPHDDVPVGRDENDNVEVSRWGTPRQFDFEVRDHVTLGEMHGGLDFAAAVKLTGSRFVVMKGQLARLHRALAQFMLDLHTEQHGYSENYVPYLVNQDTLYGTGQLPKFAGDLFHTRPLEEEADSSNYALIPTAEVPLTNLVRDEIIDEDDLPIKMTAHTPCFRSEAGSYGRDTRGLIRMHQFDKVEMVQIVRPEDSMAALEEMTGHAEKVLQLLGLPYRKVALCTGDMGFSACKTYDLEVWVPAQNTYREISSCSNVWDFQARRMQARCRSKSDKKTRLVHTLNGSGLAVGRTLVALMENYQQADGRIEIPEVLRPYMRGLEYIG
The test is described as follows: X-ray crystal structure ([…] Å), soaked crystals. The class given is binding.

For test [4], the target named is T4, LeuRS (Neisseria gonorrhoeae, UniProt B4RNT1).
T4 construct: gene leuS
T4 sequence (B4RNT1 whole entry): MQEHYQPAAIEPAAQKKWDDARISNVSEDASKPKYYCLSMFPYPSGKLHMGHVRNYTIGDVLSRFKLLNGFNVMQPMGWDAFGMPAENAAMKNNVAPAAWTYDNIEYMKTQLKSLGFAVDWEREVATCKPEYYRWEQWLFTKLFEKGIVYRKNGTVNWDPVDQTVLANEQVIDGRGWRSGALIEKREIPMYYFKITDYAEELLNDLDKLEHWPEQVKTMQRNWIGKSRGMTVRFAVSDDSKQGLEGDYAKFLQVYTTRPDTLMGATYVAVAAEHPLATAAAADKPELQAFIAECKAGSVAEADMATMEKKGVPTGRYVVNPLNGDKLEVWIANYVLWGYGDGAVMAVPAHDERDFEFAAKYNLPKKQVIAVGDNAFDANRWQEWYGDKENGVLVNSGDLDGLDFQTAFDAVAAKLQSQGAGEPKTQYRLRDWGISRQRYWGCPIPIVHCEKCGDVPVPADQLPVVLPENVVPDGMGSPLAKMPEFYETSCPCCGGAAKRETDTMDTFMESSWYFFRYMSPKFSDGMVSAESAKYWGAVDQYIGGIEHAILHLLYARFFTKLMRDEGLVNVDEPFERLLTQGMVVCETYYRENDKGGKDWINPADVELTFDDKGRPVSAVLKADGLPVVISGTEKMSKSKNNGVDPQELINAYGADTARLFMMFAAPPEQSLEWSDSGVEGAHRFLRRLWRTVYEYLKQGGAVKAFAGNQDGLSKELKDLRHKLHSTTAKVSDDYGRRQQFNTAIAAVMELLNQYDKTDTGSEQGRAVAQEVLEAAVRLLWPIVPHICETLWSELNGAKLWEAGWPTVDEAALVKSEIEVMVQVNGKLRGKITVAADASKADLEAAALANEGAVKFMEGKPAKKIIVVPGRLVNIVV
The test is described as follows: X-ray crystal structure ([…] Å), soaked crystals. The test is classed as binding.

The target in test [5] is T5, LeuRS (Escherichia coli, UniProt P07813).
T5 construct: gene leuS
T5 sequence (P07813 whole entry): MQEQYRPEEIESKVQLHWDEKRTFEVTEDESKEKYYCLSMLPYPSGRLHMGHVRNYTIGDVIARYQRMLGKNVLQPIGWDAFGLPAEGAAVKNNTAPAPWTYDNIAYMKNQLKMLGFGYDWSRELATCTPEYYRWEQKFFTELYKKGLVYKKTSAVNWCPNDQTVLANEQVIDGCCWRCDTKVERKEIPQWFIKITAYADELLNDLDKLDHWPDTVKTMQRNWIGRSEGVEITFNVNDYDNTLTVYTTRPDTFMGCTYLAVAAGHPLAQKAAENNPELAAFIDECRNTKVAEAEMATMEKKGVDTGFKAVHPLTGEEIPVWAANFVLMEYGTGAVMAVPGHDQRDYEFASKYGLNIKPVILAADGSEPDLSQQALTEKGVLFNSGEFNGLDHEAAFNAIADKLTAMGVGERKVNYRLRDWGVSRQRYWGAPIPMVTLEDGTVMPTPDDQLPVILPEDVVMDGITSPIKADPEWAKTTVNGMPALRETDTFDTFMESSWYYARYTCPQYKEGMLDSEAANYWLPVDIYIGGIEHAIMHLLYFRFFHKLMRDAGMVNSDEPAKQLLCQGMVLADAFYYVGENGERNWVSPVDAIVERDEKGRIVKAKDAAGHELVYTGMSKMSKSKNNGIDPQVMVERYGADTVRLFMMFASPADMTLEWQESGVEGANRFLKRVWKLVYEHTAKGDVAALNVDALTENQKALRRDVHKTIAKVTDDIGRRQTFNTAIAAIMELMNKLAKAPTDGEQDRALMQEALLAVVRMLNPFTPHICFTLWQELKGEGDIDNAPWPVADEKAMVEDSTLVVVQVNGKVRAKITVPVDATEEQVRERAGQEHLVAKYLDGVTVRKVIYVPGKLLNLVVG
Kind of test: radiolabel aminoacyl transfer assay with purified enzyme (Kiapp). The test is classed as biochemical.

Test [6] addresses T6, AspRS (Thermus thermophilus, UniProt Q5SKD2).
T6 construct: gene aspS1
The test is described as follows: X-ray crystal structure ([…] Å), soaked crystals. The test is classed as binding.

The target of test [7] is T7, IleRS (Escherichia coli, UniProt P00956).
T7 construct: gene ileS
T7 sequence (P00956 2-938): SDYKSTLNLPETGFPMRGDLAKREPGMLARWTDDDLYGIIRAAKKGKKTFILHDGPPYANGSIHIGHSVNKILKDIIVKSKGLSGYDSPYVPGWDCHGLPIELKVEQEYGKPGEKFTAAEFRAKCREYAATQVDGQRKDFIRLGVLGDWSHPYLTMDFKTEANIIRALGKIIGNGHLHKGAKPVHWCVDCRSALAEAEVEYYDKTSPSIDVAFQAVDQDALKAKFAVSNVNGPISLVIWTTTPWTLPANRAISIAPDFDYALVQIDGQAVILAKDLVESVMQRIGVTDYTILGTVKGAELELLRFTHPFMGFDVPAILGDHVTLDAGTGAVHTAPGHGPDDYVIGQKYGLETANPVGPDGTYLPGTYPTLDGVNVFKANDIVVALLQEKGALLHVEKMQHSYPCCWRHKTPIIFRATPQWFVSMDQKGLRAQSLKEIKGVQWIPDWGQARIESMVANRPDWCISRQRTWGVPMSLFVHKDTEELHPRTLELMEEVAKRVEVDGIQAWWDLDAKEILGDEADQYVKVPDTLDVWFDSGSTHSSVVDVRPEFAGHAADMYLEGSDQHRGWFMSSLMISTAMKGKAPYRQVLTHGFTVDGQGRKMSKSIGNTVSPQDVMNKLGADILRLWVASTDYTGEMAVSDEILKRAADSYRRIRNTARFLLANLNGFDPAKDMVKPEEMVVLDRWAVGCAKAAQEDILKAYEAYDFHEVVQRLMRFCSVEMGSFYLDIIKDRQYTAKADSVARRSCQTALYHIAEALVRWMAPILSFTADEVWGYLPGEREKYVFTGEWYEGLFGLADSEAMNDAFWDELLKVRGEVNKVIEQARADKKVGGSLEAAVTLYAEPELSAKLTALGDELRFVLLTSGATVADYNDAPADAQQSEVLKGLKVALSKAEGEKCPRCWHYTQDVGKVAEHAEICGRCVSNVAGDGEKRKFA
Kind of test: radiolabel aminoacyl transfer assay with purified enzyme (Kiapp). The test is classed as biochemical.

T2 sequence (P0A8L1 whole entry): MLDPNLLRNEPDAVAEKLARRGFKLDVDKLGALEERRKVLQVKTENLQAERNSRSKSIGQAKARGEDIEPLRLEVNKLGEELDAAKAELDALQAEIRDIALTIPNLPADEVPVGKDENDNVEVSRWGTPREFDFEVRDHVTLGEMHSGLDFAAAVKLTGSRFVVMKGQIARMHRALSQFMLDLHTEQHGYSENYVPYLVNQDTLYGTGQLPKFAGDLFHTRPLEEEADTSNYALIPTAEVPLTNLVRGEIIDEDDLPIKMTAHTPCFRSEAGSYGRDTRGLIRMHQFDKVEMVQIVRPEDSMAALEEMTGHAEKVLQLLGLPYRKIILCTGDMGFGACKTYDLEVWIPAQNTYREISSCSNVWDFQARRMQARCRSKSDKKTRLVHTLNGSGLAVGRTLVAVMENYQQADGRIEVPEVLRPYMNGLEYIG
T1 sequence (P0AGJ9 2-424): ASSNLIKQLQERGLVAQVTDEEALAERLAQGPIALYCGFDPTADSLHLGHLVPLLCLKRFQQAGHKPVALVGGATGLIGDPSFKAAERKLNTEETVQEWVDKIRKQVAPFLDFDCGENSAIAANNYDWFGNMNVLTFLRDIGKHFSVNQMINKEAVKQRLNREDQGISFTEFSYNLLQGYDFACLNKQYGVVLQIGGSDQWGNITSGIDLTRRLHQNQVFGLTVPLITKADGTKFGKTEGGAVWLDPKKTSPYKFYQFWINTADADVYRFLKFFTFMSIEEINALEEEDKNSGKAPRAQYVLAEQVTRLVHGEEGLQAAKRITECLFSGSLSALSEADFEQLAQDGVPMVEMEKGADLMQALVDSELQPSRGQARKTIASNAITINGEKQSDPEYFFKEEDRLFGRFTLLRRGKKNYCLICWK
T6 sequence (Q5SKD2 whole entry): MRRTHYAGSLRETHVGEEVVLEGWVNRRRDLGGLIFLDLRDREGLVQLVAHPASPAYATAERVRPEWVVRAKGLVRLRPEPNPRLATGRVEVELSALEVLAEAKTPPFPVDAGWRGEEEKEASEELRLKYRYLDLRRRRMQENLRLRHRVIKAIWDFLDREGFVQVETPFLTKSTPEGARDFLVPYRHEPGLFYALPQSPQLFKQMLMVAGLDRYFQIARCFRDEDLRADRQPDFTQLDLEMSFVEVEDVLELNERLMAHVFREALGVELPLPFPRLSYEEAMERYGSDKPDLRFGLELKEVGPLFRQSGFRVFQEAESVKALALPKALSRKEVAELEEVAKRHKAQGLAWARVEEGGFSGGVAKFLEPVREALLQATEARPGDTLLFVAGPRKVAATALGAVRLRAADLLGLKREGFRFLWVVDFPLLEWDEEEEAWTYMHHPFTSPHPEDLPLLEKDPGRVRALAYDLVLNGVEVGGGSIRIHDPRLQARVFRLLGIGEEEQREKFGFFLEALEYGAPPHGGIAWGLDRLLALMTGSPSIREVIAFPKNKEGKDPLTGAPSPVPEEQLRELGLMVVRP

`Nc1cc(CO)cc2ncn([C@@H]3O[C@H](COS(=O)(=O)NC(=O)[C@@H](N)Cc4ccc(O)cc4)[C@@H](O)C3O)c12` (stereo in doubt) [32b, (2R,3S,4S,5R)-(5-(7-Amino-5-(Hydroxymethyl)-1H-Benzo[d]imidazol-1-yl)-3,4-Dihydroxytetrahydrofuran-2-yl)methyl Tyrosylsulfamate]: in test [1], the Ki came to 1230 ± 239 nM.

`Nc1cc(CO)cc2ncn([C@@H]3O[C@H](COS(=O)(=O)NC(=O)[C@@H](N)CO)[C@@H](O)C3O)c12` (stereo in doubt) [32c, (2R,3S,4S,5R)-(5-(7-Amino-5-(Hydroxymethyl)-1H-Benzo[d]imidazol-1-yl)-3,4-Dihydroxytetrahydrofuran-2-yl)methyl Serylsulfamate]: in test [2], the inhibition at 200 µM was 54%. In addition, the “X-ray crystal structure (2.18 Å), soaked crystals” value in test [3] is reported as “K. pneumoniae SerRS in complex with SerS7HMDDA”.

Regarding `CC(C)C[C@H](N)C(=O)NS(=O)(=O)OC[C@H]1O[C@@H](n2cnc3cc(CO)cc(N)c32)C(O)[C@@H]1O` (stereo in doubt) [32e, (2R,3S,4S,5R)-(5-(7-Amino-5-(Hydroxymethyl)-1H-Benzo[d]imidazol-1-yl)-3,4-Dihydroxytetrahydrofuran-2-yl)methyl Leucylsulfamate], the “X-ray crystal structure (2.25 Å), soaked crystals” value in test [4] is reported as “N. gonorrhoeae LeuRS in complex with LeuS7HMDDA”. The Ki in test [5] came out at 21.5 ± 1.2 nM.

Turning to `Nc1cc(CO)cc2ncn([C@@H]3O[C@H](COS(=O)(=O)NC(=O)[C@@H](N)CC(=O)O)[C@@H](O)[C@H]3O)c12` [32d, 3-Amino-4-((((5-(7-Amino-5-(Hydroxymethyl)-1H-Benzo[d]imidazol-1-yl)-3,4-Dihydroxytetrahydrofuran-2-yl)methoxy)sulfonyl)amino)-4-Oxobutanoic Acid], the “X-ray crystal structure (2.15 Å), soaked crystals” value in test [6] is reported as “T. thermophilus AspRS in complex with AspS7HMDDA”.

Turning to `CC[C@H](C)[C@H](N)C(=O)NS(=O)(=O)OC[C@H]1O[C@@H](n2cnc3cc(CO)cc(N)c32)[C@@H](O)[C@@H]1O` [32f, (2R,3S,4S,5R)-(5-(7-Amino-5-(Hydroxymethyl)-1H-Benzo[d]imidazol-1-yl)-3,4-Dihydroxytetrahydrofuran-2-yl)methyl Isoleucylsulfamate], the Ki in test [7] came out at 10.8 ± 0.8 nM.

As usually defined, the inhibition is the share of the control response that was lost under treatment.
